Assay results: article PMC2120320 (The Journal of Cell Biology, 1994)

Tests used:
[1] = test system: dynein-driven microtubule sliding in spoke-deficient axonemes; test: Microtubule sliding velocity in spoke-deficient axonemes; type: biochemical, Chlamydomonas reinhardtii; details: for effect on velocity of microtubule sliding: spoke-deficient mutants (pf14, pf17)
[2] = test system: dynein-driven microtubule sliding in wild-type 137c axonemes; test: Microtubule sliding velocity in wild-type; type: biochemical, Chlamydomonas reinhardtii
[3] = molecular target: cyclic nucleotide-dependent kinases; details: inhibition of cyclic nucleotide-dependent kinases; ref Hidaka et al., 1984; cited from earlier work
[4] = molecular target: protein kinase C; details: ref Hidaka et al., 1984; cited from earlier work
[5] = molecular target: myosin light chain kinase; details: ref Hidaka et al., 1984; cited from earlier work
[6] = test system: dynein-driven microtubule sliding in pf14 axonemes; test: Microtubule sliding velocity in isolated pf14 axonemes; type: biochemical, Chlamydomonas reinhardtii; details: pf14, 10 μM cAMP alone (Fig. 4), mean from 20 measurements
[7] = molecular target: PKI-sensitive kinase activity; details: demembranated ram sperm, treatment with cAMP; ref San Agustin and Witman, 1994; cited from earlier work
[8] = test system: catalytic subunit of cAPK; details: demembranated rat sperm; ref Horowitz et al., 1984; cited from earlier work
[9] = test system: dynein-driven microtubule sliding in pf17 axonemes; test: Microtubule sliding velocity in isolated pf17 axonemes; type: biochemical, Chlamydomonas reinhardtii
[10] = test system: dynein-driven microtubule sliding in pf14pf28 axonemes; test: Microtubule sliding velocity in pf14pf28 axonemes; type: biochemical, Chlamydomonas reinhardtii
[11] = test system: dynein-driven microtubule sliding in pf18 axonemes; test: Microtubule sliding velocity in pf18 axonemes; type: biochemical, Chlamydomonas reinhardtii; details: pf18, 100 nM PKI; Habermacher, G., unpublished results
[12] = test system: inner arm dyneins; type: biochemical, Chlamydomonas reinhardtii
[13] = test system: pf17 axonemes; test: In vitro reactivation of beating of pf17 axonemes; type: biochemical, Chlamydomonas reinhardtii; details: pf17 axonemes with PKI, preliminary experiments
[14] = molecular target: cAMP-dependent protein kinase (cAPK); details: ref Glass et al., cited from earlier work

CC1CNCCN1S(=O)(=O)c1cccc2cnccc12 (centres unmarked) [H-7]
effect on sliding velocity ([1]; H-7, spoke-deficient axonemes, data not shown): increases | effect on velocity of microtubule sliding [1]: increased to wild-type level

Cl.N=C(N)NCCNS(=O)(=O)c1cccc2cnccc12 [HA-1004, N-(2-guanidinoethyl)-5-isoquinolinesulfonamide hydrochloride]
effect on microtubule sliding velocity ([2]; wild-type, 15 μM HA-1004, not shown): had no effect | dose dependence of sliding velocity stimulation ([1]; spoke-deficient axonemes): dose dependent | effect on velocity of microtubule sliding [1]: increased to wild-type level | Ki [3]: 1 to 3 µM | Ki [4]: 40 µM | Ki [5]: 150 µM

Nc1ncnc2c1ncn2[C@@H]1O[C@@H]2COP(=O)(O)O[C@H]2[C@H]1O [cAMP]
effect on microtubule sliding velocity [6]: had no effect | effect on RII-induced increase in sliding ([1]; 10 μM cAMP added to spokeless axonemes reconstituted with RII): reversed the effect of RII | PKI-sensitive kinase activity remaining bound after cAMP [7]: ≤ 50% | release of catalytic activity [8]: releases most of the catalytic activity

RII: regulatory subunit of bovine cardiac type II cAPK (Promega)
effect of RII on microtubule sliding ([1]; spoke-deficient axonemes, type-II regulatory subunit of cAPK): increased microtubule sliding to wild-type velocity

Thr-Tyr-Ala-Asp-Phe-Ile-Ala- Ser-Gly-Arg-Thr-Gly-A_rg-Arg-Aan-Ala-Ile-NH2 [PKI, PKI(6-22)amide]
efficacy of PKI versus NAcPKI ([9]; pf17, 100 nM (Fig. 2a)): no detectable difference | effect on microtubule sliding velocity ([9]; pf17, 100 nM peptide (Fig. 2a), PKI and NAcPKI P < 0.01 vs control or triAlaPKI): significantly increased | effect on microtubule sliding velocity ([2]; wild-type 137c, 0-200 nM PKI (Fig. 2b)): did not affect | effect on microtubule sliding velocity ([10]; pf14pf28, 100 nM PKI (Fig. 5), P < 0.001): significantly increased | effect on microtubule sliding vs pf28 control velocity ([10]; pf14pf28, PKI): increased microtubule sliding to control (pf28) velocity | effect on velocity of microtubule sliding [11]: significantly increased to wild-type levels | dose dependence of sliding velocity stimulation ([1]; spoke-deficient axonemes): dose-dependent | effect on velocity of microtubule sliding [1]: increased to wild-type level | sliding velocity with control dynein on extracted PKI-treated axonemes (PKIAxos) ([12]; pf14pf28, 100 nM PKI (Fig. 6), two experiments pooled): only slow | sliding velocity of PKI-treated axonemes before extraction vs control axonemes ([12]; pf14pf28, 100 nM PKI, Pre-Extr (Fig. 6), P < 0.05): significantly greater | reactivation of in vitro beating [13]: unable to reactivate | Ki ([14]; inhibition of cAPK, 1989): 0.0016 to 0.0025 µM | specificity of cAPK inhibition [14]; 1986: high degree of specificity
